Several values for one entry are separate records, joined by “and”; a condition that tells them apart may be missing. Equal values may be shown once.
Legend:
SB.mhdgc-1 [1] = assay: viability at highest tested concentration (MAXR) relative to DMSO; higher = less cytotoxic; details: SB.mhdgc-1 (hereditary c.1380delA CDH1 gastric cancer)
Method in brief: (§1)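 Hereditary or sporadic patient-derived gastric cancer cells (500 cells in 5 μL medium per 1536 well) received 23 nL compound in DMSO by pintool at 11 threefold-diluted concentrations, with the top concentration recorded per compound. After 48 h, CellTiter-Glo was added for 30 min at room temperature and luminescence read on a ViewLux. Values are DMSO-normalised viability, either at the highest concentration or as trapezoidal area under the curve.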

SB.msgc-1 [2] = assay: as above; details: SB.msgc-1 (sporadic gastric cancer)
Method in brief: as §1

SB.mhdgc-1 [3] = assay: area under the dose-response curve of % viability (trapezoidal, 11 doses) (% viability x log10 concentration); higher = less cytotoxic; details: SB.mhdgc-1 (hereditary c.1380delA CDH1 gastric cancer)
Method in brief: as §1

SB.msgc-1 [4] = assay: as above; details: SB.msgc-1 (sporadic gastric cancer)
Method in brief: as §1

| SMILES | viability (SB.mhdgc-1 [1]) | viability (SB.msgc-1 [2]) | area under the dose-response curve (SB.mhdgc-1 [3]) | area under the dose-response curve (SB.msgc-1 [4]) |
| --- | --- | --- | --- | --- |
| C[C@H](CCC(=O)O)[C@H]1CC[C@H]2[C@@H]3[C@H](O)C[C@@H]4C[C@H](O)CC[C@]4(C)[C@H]3CC[C@]12C [Chenodeoxycholic acid] (top concentration 46.0829 µM) | 121% | 85.4% | 478 | 381 |
| C[C@H](NC(=O)/C(C#N)=C/c1cccc(Br)n1)c1ccccc1 [WP-1066] (top concentration 46.0829 µM) | 28.2% | 7.12% | 431 | 408 |
| CC(C(=O)O)c1ccc2c(c1)CC(=O)c1ccccc1S2 (stereo not given) [Zaltoprofen] (top concentration 46.0829 µM) | 31.5% | 49.6% | 452 | 431 |
| COc1cc([C@@H]2c3cc4c(cc3[C@H](O)[C@H]3COC(=O)[C@@H]23)OCO4)cc(OC)c1OC [Picropodophyllin] (top concentration 46.0829 µM) | 45.9% | 40.5% | 381 | 353 |
| C[N+]1(C)[C@@H]2CC(OC(=O)C(O)(c3cccs3)c3cccs3)C[C@H]1[C@@H]1O[C@@H]12 (stereo not given in full) [Tiotropium bromide] (top concentration 46.0829 µM) | 118% | 113% | 477 | 528 |
| CN1/C=C(\N=C(NC2=CC=C(C=C2)C(=O)N3CCOCC3)/C1=O)/C4=C(C)C(=CC=C4)NC(=O)C5=CC=C(C=C5)C(C)(C)C [CGI-1746] (top concentration 46.0829 µM) | 2.71% | 3.95% | 524 | 459 |
| CCN1CCN(CC1)CC(=O)NC2=CC=C(C3=C2C4=C(S3)C=CC=C4)C5=C6O\C(=C/C(=O)C6=CC=C5)N7CCOCC7 (top concentration 46.0829 µM) | 0.471% | 4.65% | 336 | 352 |
| NC[C@H](O)c1ccc(O)c(O)c1 [Noradrenaline bitartrate monohydrate] (top concentration 46.0829 µM) | 67.7% | 86% | 465 | 479 |
| C1CCN2C[C@H]3C[C@H](\C=C/4CCCN[C@@H]34)[C@H]2C1 [Aloperine] (top concentration 46.0829 µM) | 51.5% | 81.6% | 470 | 485 |
| CC(C)=CCC/C(C)=C/CC/C(C)=C/CC/C(C)=C/CC/C(C)=C/CC/C(C)=C/CC/C(C)=C/CC/C(C)=C/CC/C(C)=C/CO [Solanesol] (top concentration 46.0829 µM) | 133% | 119% | 611 | 564 |
| C[C@@H](NC(=O)c1ncnc(N)c1Cl)c1ncc(C(=O)Nc2cc(C(F)(F)F)c(Cl)cn2)s1 [MLN-2480] (top concentration 46.0829 µM) | 71.9% | 48.3% | 543 | 554 |
| C[C@](O)(CS(=O)(=O)c1ccc(F)cc1)C(=O)Nc1ccc(C#N)c(C(F)(F)F)c1 [(R)-Bicalutamide] (top concentration 46.0829 µM) | 1.24% | 3.76% | 301 | 377 |
| COc1ccc(-c2ccc3cc(C(=O)O)ccc3c2)cc1C12CC3CC(CC(C3)C1)C2 [Adapalene] (top concentration 46.0829 µM) | 59.4% | 30.8% | 515 | 517 |
| O=[N+]([O-])c1cn2c(n1)OC[C@@H](OCc1ccc(OC(F)(F)F)cc1)C2 [PA-824] (top concentration 46.0829 µM) | 61.5% | 36.8% | 415 | 487 |
| O=C(O)CCCc1ccc(N(CCCl)CCCl)cc1 [Chlorambucil] (top concentration 46.0829 µM) | 42% | 79.2% | 441 | 510 |
| COc1ccc(/C=C\c2cc(OC)c(OC)c(OC)c2)cc1O [Combretastatin A-4] (top concentration 46.0829 µM) | 34.6% | 49.1% | 273 | 462 |
| CC(C)OC(=O)OCOP(=O)(CO[C@H](C)Cn1cnc2c(N)ncnc21)OCOC(=O)OC(C)C.O=C(O)C=CC(=O)O [Tenofovir Disoproxil Fumarate] (top concentration 46.0829 µM) | 39% | 36.3% | 531 | 500 |
| CNC(=O)c1nn(C)c2c1C(C)(C)Cc1cnc(Nc3ccc(N4CCN(C)CC4)cc3)nc1-2 [Milciclib] (top concentration 46.0829 µM) | 61.8% | 59.5% | 454 | 445 |
| COc1ccc2c(c1OC)CN1CCc3cc4c(cc3C1C2)OCO4 (stereo not given) [Tetrahydroberberine Canadine] (top concentration 46.0829 µM) | 72.5% | 23.9% | 550 | 292 |
| CC/C=C\C[C@H]1C(=O)CC[C@@H]1CC(=O)OC [methyl jasmonate] (top concentration 46.0829 µM) | 102% | 102% | 523 | 548 |
| CC(C)(C)COc1ccc(-n2cc(C(=O)O)cn2)cc1C#N [Piraxostat] (top concentration 46.0829 µM) |  |  | 552 | 613 |
| COc1ccc([C@@H]2CC(=O)c3c(O)cc(O[C@@H]4O[C@H](CO[C@@H]5O[C@@H](C)[C@H](O)[C@@H](O)[C@H]5O)[C@@H](O)[C@H](O)[C@H]4O)cc3O2)cc1O [Aurantiamarin] (top concentration 46.0829 µM) | 87.1% and 76.4% |  | 505 and 579 | 501 and 495 |

From the supplement of paper PMC5412046
